Patent publication US10730885B1, “Coumarin derivatives” (KING SAUD UNIVERSITY, priority 2019, dated 2020)
Converted amounts (≈) assume the structure as drawn. Where two headings read alike, the source gives them in different places.

Key:
trypsin = assay: Proteinase inhibitory activity (trypsin/casein); type: biochemical; conditions: for % Inhibition of proteinase activity: 250 μg/ml, mean ± SD (n = 3)
Method: For proteinase inhibitory activity, the reaction mixture (2 ml) contained 0.06 mg trypsin, 20 mM Tris HCl buffer (pH 7.4) and 1 ml test sample (250 μg/ml for each compound). The mixture was incubated for 5 min and then 1 ml of 0.8% (w/v) casein was added. The mixture was incubated for an additional 20 min. 1 ml of 10% perchloric acid was added to arrest the reaction. The cloudy suspension was centrifuged, and the absorbance of the supernatant was read at 280 nm. Reference standard compound aspirin was used as the positive control for this assay. The experiment was performed in triplicate. Percentage inhibition of […] was calculated by using the following formula:
[formula] where Acontrol is the absorbance of the control reaction and Atest is the absorbance of the control reaction with sample.

[1] = DPPH microplate radical scavenging antioxidant assay; type: biochemical; conditions: for IC50: DPPH, 30 min, mean ± SD (n = 3); for antioxidant activity: overview
Method: The antioxidant activity of the synthesized compounds was measured in terms of hydrogen-donating or radical scavenging ability using the DPPH microplate-based method. Absorbance measurement was obtained using Microplate/cuvette reader (Spectramax M5, Molecular Devices, California, USA). Reference standard compound ascorbic acid was used as the positive control for this assay at concentrations ranging from 1.563 to 200 μg/mL. Test samples were prepared at a starting concentration of 200 μg/mL after mixing with 100 μl of 0.2 mM DPPH methanolic solution. A series of concentrations were tested for the samples in order to determine the 50% inhibitory concentration (IC50). Samples were incubated with DPPH in the dark for 30 min at room temperature (25° C.). The DPPH solution in methanol was prepared daily and stored in a flask covered with aluminum foil. DPPH radicals have an absorption maximum (λmax) at 515 nm, in which the absorbance values were measured and converted into percentage of antioxidant activity.
Methanolic DPPH solution without antioxidant was applied as control and background control was samples in methanol only. IC50 was determined using Graphpad Prism 7 (Graphpad Software Inc. CA, USA). The percentage inhibition was calculated by using the formula:
The assay was carried out in triplicate and performed as much as possible in an area protected against light. The data points are presented as the mean±standard deviation (SD) (n=3).

tested microorganisms = assay: Agar well diffusion, summary over the tested microorganisms; type: cell-based; conditions: against one or more microorganisms
Description: (§1) The newly synthesized compounds were individually tested for their in vitro antimicrobial activity against the standard bacteria strains of American Type Culture Collection (ATCC), namely, Staphylococcus aureus ATCC 29213, Bacillus subtilis ATCC 6633, Bacillus megaterium ATCC 9885 (Gram-positive), Escherichia coli ATCC 2592 and Pseudomonas aeruginosa ATCC 27953 (Gram-negative). In addition, they were microbiologically tested against the locally isolated Saccharomyces cerevisiae (yeast) and the standard strain of Agricultural Research Service Culture Collection (NRRL) of the yeast like pathogenic fungus Candida albicans NRRL Y-477. The primary screening was carried out using the agar well diffusion method using nutrient agar (NA) medium and Sabourand dextrose agar (SDA) medium for pathological tested bacteria and yeast, respectively.
(§2) Antimicrobial tests were carried out by the agar well diffusion method using 100 μL of suspension containing 1×10^8 CFU/mL of pathological tested bacteria and 1×10^6 CFU/ml of yeast spread on NA and SDA, respectively. After the media was cooled and solidified, wells (10 mm in diameter) were made in the solidified agar and loaded with 100 μL of tested compound solution prepared by dissolving 10 mg of the chemical compound in one ml of dimethyl sulfoxide (DMSO). The inculcated plates were then incubated for 24 h at 37° C. for bacteria and yeast. Negative controls were prepared using DMSO employed for dissolving the tested compound. Ciprofloxacin (10 mg/ml) and ketoconazole (10 mg/ml) were used as standard for antibacterial and antifungal activity, respectively. After incubation time, antimicrobial activity was evaluated by measuring the zone of inhibition against the test organisms and compared with that of the standard. Antimicrobial activities were expressed as inhibition diameter zones in millimeters (mm). The experiment was carried out in triplicate and the average zone of inhibition was calculated.

[2] = tested on: Candida albicans NRRL Y-477; assay: Agar well diffusion, primary antimicrobial screening; type: cell-based; conditions: for antifungal activity compared with reference drug: C. albicans; for zone of inhibition at 10000 µg/mL: Candida albicans, NRRLY477, C. albicans NRRL Y-477, 100 μL of 10 mg/ml in DMSO, 24 h, read-out: Inhibition Diameter Zone CA
Description: as §1, §2

[3] = tested on: Staphylococcus aureus ATCC 29213; assay: as above; type: cell-based; conditions: S. aureus
Description: as §1, §2

[4] = tested on: Bacillus subtilis ATCC 6633; assay: as above; type: cell-based; conditions: for antibacterial activity compared with reference drug: B. subtilis; for zone of inhibition at 10000 µg/mL: Bacillus subtilis, ATCC6633, B. subtilis ATCC 6633, 100 μL of 10 mg/ml in DMSO, 24 h, read-out: Inhibition Diameter Zone BS
Description: as §1, §2

[5] = tested on: Saccharomyces cerevisiae (local isolate); assay: as above; type: cell-based; conditions: for zone of inhibition at 10000 µg/mL: Saccharomyces cerevisiae, 24 h, read-out: Inhibition Diameter Zone SC
Description: as §1, §2

[6] = tested on: Escherichia coli ATCC 2592; assay: as above; type: cell-based; conditions: E. coli
Description: as §1, §2

[7] = tested on: Bacillus megaterium ATCC 9885; assay: as above; type: cell-based; conditions: Priestia megaterium, ATCC9885; B. megaterium ATCC 9885; 100 μL of 10 mg/ml in DMSO, 24 h; read-out: Inhibition Diameter Zone BM
Description: as §1, §2

[8] = S. cerevisiae local isolate, 100 μL of 10 mg/ml in DMSO

SMILES: CC(=O)Oc1ccccc1C(=O)O [Aspirin, aspirin, reference compound]
- % Inhibition of proteinase activity (trypsin): 45.83 ± 4.21%

SMILES: O=c1oc2ccc(Cl)cc2c(O)c1S(=O)(=O)Nc1ccc(S(=O)(=O)Nc2nccs2)cc1 [Compound 10e, 6-chloro-4-hydroxy-2-oxo-N-(4-(N-(thiazol-2-yl)sulfamoyl)phenyl)-2H-chromene-3-sulfonamide]
- IC50 [1]: 71.67 ± 3.231 µg/mL (≈ 139 µM)
- melting point: 215 to 217 °C

SMILES: O=c1oc2ccc(Cl)cc2c(O)c1S(=O)(=O)Nc1ccccc1 [Compound 11a, 6-Chloro-4-hydroxy-2-oxo-N-phenyl-2H-chromene-3-sulfonamide]
- antimicrobial activity compared with standard antimicrobials (ciprofloxacin and ketoconazole) (tested microorganisms): equal to or higher than the standard antimicrobials
- IC50 [1]: 14.51 ± 1.827 µg/mL (≈ 41.2 µM)
- antioxidant activity [1]: particularly high antioxidant activity
- in vitro anti-proteinase activity compared with aspirin (trypsin): as potent
- % Inhibition of proteinase activity (trypsin): 44.7 ± 8.22%
- melting point: 337 to 339 °C
- antifungal activity compared with reference drug [2]: higher antifungal activity

SMILES: NS(=O)(=O)c1ccc(NS(=O)(=O)c2c(O)c3cc(Cl)ccc3oc2=O)cc1 [Compound 10a, 6-Chloro-4-hydroxy-2-oxo-N-(4-sulfamoylphenyl)-2H-chromene-3-sulfonamide]
- antimicrobial activity compared with standard antimicrobials (ciprofloxacin and ketoconazole) (tested microorganisms): equal to or higher than the standard antimicrobials
- IC50 [1]: 93.12 ± 0.727 µg/mL (≈ 216 µM)
- % Inhibition of proteinase activity (trypsin): 18.78 ± 2.05%
- melting point: 245 to 247 °C
- antibacterial activity compared with ciprofloxacin [3]: equal to ciprofloxacin
- antibacterial activity compared with reference drug [4]: comparable antibacterial activities to the standard

SMILES: Cc1ccc2oc(=O)c(S(=O)(=O)Nc3ccc(C(=O)/C=C/c4ccc(Cl)cc4)cc3)c(O)c2c1 [Compound 12d, (E)-N-(4-(3-(4-chlorophenyl)acryloyl)phenyl)-4-hydroxy-6-methyl-2-oxo-2H-chromene-3-sulfonamide]
- antimicrobial activity compared with standard antimicrobials (ciprofloxacin and ketoconazole) (tested microorganisms): equal to or higher than the standard antimicrobials
- IC50 [1]: — ((—): inactive (IC50 > 200 μg/mL))
- % Inhibition of proteinase activity (trypsin): 31.88 ± 3.82%
- melting point: 141 to 143 °C
- antifungal activity compared with reference drug [2]: higher antifungal activity
- antibacterial activity compared with ciprofloxacin [3]: equal to ciprofloxacin
- antibacterial activity compared with reference drug [4]: comparable antibacterial activities to the standard
- antimicrobial activity compared with ketoconazole ([5]; S. cerevisiae): higher than that of the corresponding control drug
- zone of inhibition at 10000 µg/mL [5, 8]: 32 mm
- antibacterial activity compared with ciprofloxacin [6]: higher antibacterial activity than ciprofloxacin

SMILES: Cc1ccc2oc(=O)c3c(c2c1)OC(N)=C(C(N)=O)C3c1ccco1 (racemic) [Compound 6b, (±)-2-amino-4-(furan-2-yl)-9-methyl-5-oxo-4H,5H-pyrano[3,2-c]chromene-3-carboxamide]
- IC50 [1]: 48.38 ± 4.61 µg/mL (≈ 143 µM)
- in vitro anti-proteinase activity compared with aspirin (trypsin): more potent
- % Inhibition of proteinase activity (trypsin; listed as 6h): 49.28 ± 10.93%
- melting point: 202 to 204 °C
- zone of inhibition at 10000 µg/mL [7]: < 15 mm
- zone of inhibition at 10000 µg/mL [4]: < 15 mm

SMILES: COc1ccc(/C=C/C(=O)c2ccc(NS(=O)(=O)c3c(O)c4cc(C)ccc4oc3=O)cc2)cc1 [Compound 12f, (E)-4-hydroxy-N-(4-(3-(4-methoxyphenyl)acryloyl)phenyl)-6-methyl-2-oxo-2H-chromene-3-sulfonamide]
- IC50 [1]: — ((—): inactive (IC50 > 200 μg/mL))
- % Inhibition of proteinase activity (trypsin): 21.7 ± 7.6%
- melting point: > 300 °C

SMILES: Cc1ccc2oc(=O)c(S(=O)(=O)Nc3ccccc3)c(O)c2c1 [Compound 11b, 4-Hydroxy-6-methyl-2-oxo-N-phenyl-2H-chromene-3-sulfonamide]
- IC50 [1]: 19.25 ± 4.171 µg/mL (≈ 58.1 µM)
- antioxidant activity [1]: particularly high antioxidant activity
- % Inhibition of proteinase activity (trypsin): 14.3 ± 2.21%
- melting point: 324 to 325 °C

SMILES: O=C1O[C@H]([C@@H](O)CO)C(O)=C1O [Ascorbic acid, ascorbic acid, reference compound]
- IC50 [1]: 2.83 ± 0.166 µg/mL (≈ 16.1 µM)

SMILES: COc1ccc(/C=C/C(=O)c2ccc(NS(=O)(=O)c3c(O)c4cc(Cl)ccc4oc3=O)cc2)cc1 [Compound 12e, (E)-6-chloro-4-hydroxy-N-(4-(3-(4-methoxyphenyl)acryloyl)phenyl)-2-oxo-2H-chromene-3-sulfonamide]
- IC50 [1]: — ((—): inactive (IC50 > 200 μg/mL))
- % Inhibition of proteinase activity (trypsin): 22.83 ± 4.88%
- melting point: > 300 °C

SMILES: Cc1ccc2oc(=O)c(S(=O)(=O)Nc3ccc(C(=O)/C=C/c4ccc([N+](=O)[O-])cc4)cc3)c(O)c2c1 [Compound 12b, (E)-4-hydroxy-6-methyl-N-(4-(3-(4-nitrophenyl)acryloyl)phenyl)-2-oxo-2H-chromene-3-sulfonamide]
- IC50 [1]: — ((—): inactive (IC50 > 200 μg/mL))
- melting point: 220 to 222 °C

SMILES: Cc1ccc2oc(=O)c3c(c2c1)OC(N=Cc1ccccc1)=C(C#N)C3c1ccco1 (racemic) [Compound 8b, (±)-2-(benzylideneamino)-4-(furan-2-yl)-9-methyl-5-oxo-4H,5H-pyrano[3,2-c]chromene-3-carbonitrile]
- melting point: 250 to 252 °C

SMILES: O=C(O)c1cn(C2CC2)c2cc(N3CCNCC3)c(F)cc2c1=O [Ciprofloxacin, reference compound]
- zone of inhibition at 10000 µg/mL [2]: < 15 mm
- zone of inhibition at 10000 µg/mL [5, 8]: < 15 mm

SMILES: Cc1ccc2oc(=O)c3c(c2c1)OC(N=CN(C)C)=C(C#N)C3c1ccco1 (racemic) [Compound 7b, (±)-N′-(3-cyano-4-(furan-2-yl)-9-methyl-5-oxo-4H,5H-pyrano[3,2-c]chromen-2-yl)-N,N-dimethylformimidamide]
- IC50 [1]: — ((—): inactive (IC50 > 200 μg/mL))
- % Inhibition of proteinase activity (trypsin): 33.17 ± 2.79%
- melting point: 273 to 275 °C
- zone of inhibition at 10000 µg/mL [2]: < 15 mm
- zone of inhibition at 10000 µg/mL [7]: < 15 mm
- zone of inhibition at 10000 µg/mL [4]: < 15 mm
- zone of inhibition at 10000 µg/mL [5]: < 15 mm
